Type in all cases: in vivo
For data set [1], the system named is Mice. The data set can be described thus: Minimum lethal dose test in mice (mortality after intraperitoneal dosing). The conditions noted are these: I.P.; for No. of dead Animals, Day of test 0 / No. of dead Animals, Day of test 1 / No. of dead Animals, Day of test 2 / No. of dead Animals, Total: 2 animals. How it is done:
(1) Minimum Lethal Dose Test in Mice
Groups of 2 mice each, weighing 29 - 36 g, were treated intraperitoneally with the compound and observed for signs of - central, autaonomic and toxic responses for 5 hours. Mortality counts were made on days 0, 1 and 2 (day 0 is the dosing day).

In data set [2] the test system is Yeast-induced Pyresis in Rats. The data set can be described thus: Anti-pyretic activity, temperature regulation in yeast-induced pyretic rats. Conditions: I.P.; for Rectal Temperature (C^o, Mean+ S.D.), Time after Treatment (hour) 0: 0 hour (just prior to drug administration); for Rectal Temperature (C^o, Mean+ S.D.), Time after Treatment (hour) 0.5: 0.5 hour; for Rectal Temperature (C^o, Mean+ S.D.), Time after Treatment (hour) 1.0: 1.0 hour; for Rectal Temperature (C^o, Mean+ S.D.), Time after Treatment (hour) 1.5: 1.5 hour; for Rectal Temperature (C^o, Mean+ S.D.), Time after Treatment (hour) 2.0: 2.0 hour; for Rectal Temperature, Change C^o: average at 0.5-2.0 hours versus vehicle (39.8). How it is done:
(3) Anti-pyretic Activity (Temperature Regulation in Pyretic Rats) Rats, weighing 220 - 300 g, were treated subcutaneously in the nape of the neck with 6 ml of 40 % suspension of dried Brewer's yeast in distilled water. Groups of 3 rats were treated intraperitoneally with the compound 17 hours challenge. Rectal temperature were recorded with a thermister type thermometer (Type BMA-77 produced by Natsume Seisalusho, Japan) just prior to the drug administration and at 30 minutes intervals for 2 hours.

The subject of data set [3] is writhing syndrome. Kind of data set: Analgesic activity, mouse anti-writhing method (acetic acid-induced writhing). Conditions: mice, I.P., 45 minutes before acetic acid. On the procedure:
(2) Analgestic Activity (Mouse Anti-Writhing Method)
Groups of 5 mice each, weighing 26 - 32 g, were treated intraperitoneally with the compounds. The method is based on the antagonism of a writhing syndrome (abnormal contraction and twisting of the body) produced by the intraperitoneal injection of 10 ml/kg of 0.7 X acetic acid-saline solution. Ten minutes after the acetic acid injection, the number of writhes observed in a 10 minute counting period was recorded. The compound was administered 45 minutes before the acetic acid injection.
A general note: In writhing tests, fewer writhes than in controls are read as antinociception.

Where [4] appears, read: 60 mg/kg, first series (vehicle 10.9 ± 8.9).
Where [5] appears, read: 60 mg/kg, second series (vehicle 12.8 ± 6.3).
Where [6] appears, read: 30 mg/kg, first series (vehicle 10.9 ± 8.9).

Regarding `COc1ccc(C2Sc3ccccc3N(CCN(C)C)C(=O)C2=O)cc1` (centres unmarked) [Ia, 2-(4-methoxyphenyl)-2,3-dihydro-5-(2-dimethylaminoethyl)-1,5-benzothiazepine-3,4(5H)-dione], in data set [1] (10 mg/kg), the “No. of dead Animals, Day of test 0” value came to 0; the “No. of dead Animals, Day of test 1” value is listed as 0; the “No. of dead Animals, Day of test 2” value turned out to be 0; the “No. of dead Animals, Total” value is 0. In data set [1] (30 mg/kg), the “No. of dead Animals, Day of test 0” value was determined as 0; the “No. of dead Animals, Day of test 1” value is recorded as 0; the “No. of dead Animals, Day of test 2” value came out at 0; the “No. of dead Animals, Total” value is on record as 0. Moreover, in data set [1] (100 mg/kg), the “No. of dead Animals, Day of test 0” value turned out to be 0; the “No. of dead Animals, Day of test 1” value turned out to be 0; the “No. of dead Animals, Day of test 2” value stood at 0; the “No. of dead Animals, Total” value is recorded as 0. Also, in data set [1] (300 mg/kg), the “No. of dead Animals, Day of test 0” value amounted to 2 and the “No. of dead Animals, Total” value was 2. The “Minimum Acute Lethal Dose” value in data set [1] (mortality counted on days 0, 1 and 2) is given as 300 mg/kg. Also, in data set [2] (60 mg/kg), the “Rectal Temperature, Average at 0.5-2.0 Hours Post-tretment” value was determined as 38.7 C^o; the “Rectal Temperature (C^o, Mean+ S.D.), Time after Treatment (hour) 0” value came out at 39.7±0.15 C^o; the “Rectal Temperature (C^o, Mean+ S.D.), Time after Treatment (hour) 0.5” value turned out to be 38.4±0.57 C^o; the “Rectal Temperature (C^o, Mean+ S.D.), Time after Treatment (hour) 1.0” value was 38.4±0.35 C^o. In addition, in data set [2] (60 mg/kg), the “Rectal Temperature (C^o, Mean+ S.D.), Time after Treatment (hour) 1.5” value stood at 38.8±0.49 C^o; the “Rectal Temperature (C^o, Mean+ S.D.), Time after Treatment (hour) 2.0” value was determined as 39.0±0.51 C^o; the “Rectal Temperature, Change C^o” value is on record as -1.1 C^o. In data set [3] (setting [4]), the “% Change from Control” value was -92.7% and the “No. of Writhes (Mean + S.D.)” value turned out to be 0.8 ± 1.3. In data set [3] (setting [5]), the “% Change from Control” value is on record as -100.0% and the “No. of Writhes (Mean + S.D.)” value was 0.0 ± 0.0.
For the compound `CC(C)=CCN1CCC2(C)c3cc(O)ccc3CC1C2C` (centres unmarked) [Pentazo-cine, reference compound], in data set [3] (setting [6]), the “% Change from Control” value was -83.5% and the “No. of Writhes (Mean + S.D.)” value came out at 1.8 ± 2.2.
On to `Cc1c(N(C)C)c(=O)n(-c2ccccc2)n1C` [Amino-pyrin, reference compound], for which, in data set [2] (30 mg/kg), the “Rectal Temperature, Average at 0.5-2.0 Hours Post-tretment” value is recorded as 37.5 C^o; the “Rectal Temperature (C^o, Mean+ S.D.), Time after Treatment (hour) 0” value stood at 39.6±0.10 C^o; the “Rectal Temperature (C^o, Mean+ S.D.), Time after Treatment (hour) 0.5” value was 38.1±0.50 C^o; the “Rectal Temperature (C^o, Mean+ S.D.), Time after Treatment (hour) 1.0” value is on record as 37.2±0.58 C^o. In data set [2] (30 mg/kg), the “Rectal Temperature (C^o, Mean+ S.D.), Time after Treatment (hour) 1.5” value is recorded as 37.2±0.53 C^o; the “Rectal Temperature (C^o, Mean+ S.D.), Time after Treatment (hour) 2.0” value was 37.4±0.46 C^o; the “Rectal Temperature, Change C^o” value is -2.3 C^o.

The values above are taken from patent EP0137083A1, “1,5-Benzothiazepine derivatives and production thereof” (HAMARI YAKUHIN KOGYO KABUSHIKI KAISHA also known as HAMARI …, priority 1983, dated 1985).
